Data published in article PMC11831473 (Advanced Science, 2024).

Target: T1, Tumor necrosis factor receptor-associated factor 4 (TRAF4) (Homo sapiens, UniProt Q9BUZ4)
T1 construct: GFP-TRAF4 (MST)
T1 sequence (Q9BUZ4 1-470): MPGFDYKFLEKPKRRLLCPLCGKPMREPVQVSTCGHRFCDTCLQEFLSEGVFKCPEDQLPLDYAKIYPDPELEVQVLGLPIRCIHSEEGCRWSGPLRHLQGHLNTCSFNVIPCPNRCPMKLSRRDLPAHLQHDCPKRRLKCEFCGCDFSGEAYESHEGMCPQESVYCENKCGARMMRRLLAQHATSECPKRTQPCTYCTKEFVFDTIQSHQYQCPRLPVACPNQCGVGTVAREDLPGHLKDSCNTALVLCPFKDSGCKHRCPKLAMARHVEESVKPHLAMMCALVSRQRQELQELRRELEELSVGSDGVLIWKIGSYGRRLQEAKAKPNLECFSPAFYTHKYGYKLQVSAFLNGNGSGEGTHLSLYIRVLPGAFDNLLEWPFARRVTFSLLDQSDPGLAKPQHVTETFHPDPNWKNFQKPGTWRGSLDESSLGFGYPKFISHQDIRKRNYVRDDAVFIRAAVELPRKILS
Assay: ITC (Kd […]); also MST (Kd […]), competition of biotin-OA pull-down, CETSA
Type: binding

**Q.** With `COc1c(O)cc2oc(-c3ccccc3)cc(=O)c2c1O` [OA, Oroxylin A] as the compound, how does the Kd read?
**A.** Its Kd is 1100 nM.
